Earlier results in US20110033506A1, “COMBINATION DOSAGE FORM OF LOW-DOSE MODAFINIL AND LOW-DOSE SILDENAFIL” (priority 2008, published 2011).

Tested on: hamsters
Conditions: Agostino et al, PNAS 2007

In the case of `CCCc1nn(C)c2c(=O)[nH]c(-c3cc(S(=O)(=O)N4CCN(C)CC4)ccc3OCC)nc12.O=C(O)CC(O)(CC(=O)O)C(=O)O` [Sildenafil, 1-[[3-(6,7-dihydro-1-methyl-7-oxo-3-propyl-1H-pyrazolo[4,3-d]pyrimidin-5-yl)-4-ethoxyphenyl]sulfonyl]-4-methylpiperazine], the “re-establishing disrupted circadian rhythms (jet lag)” value is given as “effective in re-establishing disrupted circadian rhythms”.
